According to patent publication US12319652B2, “Salts and solid forms of (R)-1-(5-methoxy-1H-indol-1-yl)-N,N-dimethylpropan-2-amine” (priority 2021, dated 2025):

How the values were obtained:
[1] = Dynamic vapor sorption (DVS); type: physicochemical; details: for DVS isotherm type / hygroscopicity: 0 to 90 to 0% RH; for DVS desorption behaviour (hysteresis): during desorption
Method: There are two main methods to use, one is by time where the equilibration is given by a fixed time, i.e., 1 hour per step and is appropriate for an unknown phase. The second, is by mass per time unit (dm/dt) of 0.002%/min; that is when the difference in weight is less than 0.002%, the instrument moves onto the next step. For unknown hygroscopicity, the method by time is indicated because it gives an idea of water affinity without wasting much time. Ideally the analyses are repeated using the mass equilibration method to confirm. By experience for hygroscopic samples, the analysis can continue for days. For non-hygroscopic samples the difference between the two methods may not be significant.
Consequently, amorphous batch 1 was analyzed by the fixed time method and once compound 1 fumarate crystalline polymorphic Form A was generated the analyses was repeated as mass per unit time equilibrated @dm/dt ([…]) and is given below (refer to FIG. 12).
(§1) The moisture sorption properties of the feed API were analysed by DVS Intrinsic instrument (Surface Measurement System). Approximately 20 to 50 mg of API was weighed onto an aluminium pan and loaded into the instrument equilibrated at 25° C. The sample was equilibrated under a dry atmosphere (0% relative humidity) for 60 minutes, before increasing the humidity from 0% to 30% at 5%4 step increment and from 30% to 90% at 10% step increment. A desorption cycle was also applied from 90% to 30% (10% step decrement) and from 30% to 0% (5% step decrement). A rate of change in mass per time unit (dm/dt) of 0.002%/min was set as the equilibrium parameter. Kinetic and isotherm graphs were calculated.
Specimens were equilibrated at 0% RH for 60 min, prior to DVS analyses (stepped increment % RH up to 90% RH and stepped decrement % RH down to 0% RH.
as §1, with “5%” for “5%4”

[2] = Solubility determinations in SIF buffers (FaSSIF, FeSSIF, FaSSGF); type: physicochemical
Method: At this stage ca. 1 g of each front-runner salt form was prepared. Salt forms that offered significant solubility and stability advantages over the non-ionized API were prioritized. […] Scale Up
The solubility of the salts below was determined in FaSSIF, FeSSIF and FaSSGF by reference to the calibration curve of amorphous compound 1.
Separate portions of compound 1 were weighed out into aluminum boats and were charged to the relevant volumetric flasks. Solutions were made to volume with 1 to 1 (v/v) acetonitrile/purified water to give calibrants of known API concentrations and analyzed by HPLC, suitable to determine the concentration of compound 1 free base in the SIF buffer solubility study.
Each sample (150 mg) was suspended in the relevant SIF buffer (5.0 ml), to give a concentration of 30 mg/ml and maintain at 37° C. for 24 h. The pH was adjusted using 1 M HCl or 1 M NaOH, to ensure that the suspension remains in range.
Sample (1 ml) of the well-stirred representative suspensions was obtained at 1 h, 3 h, 6 h and 24 h and the pH was recorded. The pH of the bulk suspension was re-adjusted when necessary. The obtained sample from each vial was centrifuged, and the supernatant was analysed by HPLC (note, the analyte was diluted, when outside of the calibration range); XRPD analysis was performed on the wet sample pellet for evidence of form change, as well as on the oven-dried pellet (undervacuum at 40° C.).

[3] = type: physicochemical; details: 40° C./75% RH, 10-day time point
Method: Equilibrium Humidity Evaluation (40° C./75% RH for 10 Days)
100 mg portions of compound 1 salts (for inputs see table below) were placed in the relevant open vials. The powders were finely divided and distributed evenly over the base of the vial, such that equal material coverage across the panel was observed. These samples were then maintained 40°C. under 75% RH. The samples were sub-sampled at intervals of 5 and 10 days and analysed by ^1H NMR, HPLC, XRPD, DSC, TGA and PLM, for evidence of phase change or chemical degradation (FIG. 269-297).

SMILES	DVS isotherm type / hygroscopicity [1]	DVS 0 to 90 to 0% RH (dm/dt <0.002%) ([1]; 5.0% RH, desorption)	DVS 0 to 90 to 0% RH (dm/dt <0.002%) ([1]; 5.0% RH, sorption)	DVS 0 to 90 to 0% RH (dm/dt <0.002%) ([1]; 10.0% RH, desorption)	DVS 0 to 90 to 0% RH (dm/dt <0.002%) ([1]; 10.0% RH, sorption)	DVS 0 to 90 to 0% RH (dm/dt <0.002%) ([1]; 15.0% RH, desorption)	DVS 0 to 90 to 0% RH (dm/dt <0.002%) ([1]; 15.0% RH, sorption)	DVS 0 to 90 to 0% RH (dm/dt <0.002%) ([1]; 20.0% RH, desorption)	DVS 0 to 90 to 0% RH (dm/dt <0.002%) ([1]; 20.0% RH, sorption)	DVS 0 to 90 to 0% RH (dm/dt <0.002%) ([1]; 25.0% RH, desorption)	DVS 0 to 90 to 0% RH (dm/dt <0.002%) ([1]; 25.0% RH, sorption)	DVS 0 to 90 to 0% RH (dm/dt <0.002%) ([1]; 30.0% RH, desorption)	DVS 0 to 90 to 0% RH (dm/dt <0.002%) ([1]; 30.0% RH, sorption)	DVS 0 to 90 to 0% RH (dm/dt <0.002%) ([1]; 40.0% RH, desorption)	DVS 0 to 90 to 0% RH (dm/dt <0.002%) ([1]; 40.0% RH, sorption)	DVS 0 to 90 to 0% RH (dm/dt <0.002%) ([1]; 50.0% RH, desorption)	DVS 0 to 90 to 0% RH (dm/dt <0.002%) ([1]; 50.0% RH, sorption)	DVS 0 to 90 to 0% RH (dm/dt <0.002%) ([1]; 60.0% RH, desorption)	DVS 0 to 90 to 0% RH (dm/dt <0.002%) ([1]; 60.0% RH, sorption)	DVS 0 to 90 to 0% RH (dm/dt <0.002%) ([1]; 70.0% RH, desorption)	further results
COc1ccc2c(ccn2C[C@@H](C)N(C)C)c1.O=C(O)c1ccccc1 [compound 1 benzoate]	hygroscopic	-0.39%	0.02%	−0.34%	0.04%	-0.29%	0.06%	−0.25%	0.10%	−0.19%	0.10%	-0.16%	0.13%	−0.19%	0.19%	0.20%	0.30%	0.41%	0.42%	0.61%	DVS weight gain at 70% RH ([1]; 70% RH (printed 70° RH in Example 8)): ca. 0.6 % w/w; DVS 0 to 90 to 0% RH (dm/dt <0.002%) ([1]; 70.0% RH, sorption): 0.58%; DVS 0 to 90 to 0% RH (dm/dt <0.002%) ([1]; 80.0% RH, desorption): 0.92%; DVS 0 to 90 to 0% RH (dm/dt <0.002%) ([1]; 80.0% RH, sorption): 0.89%; DVS 0 to 90 to 0% RH (dm/dt <0.002%) ([1]; 90.0% RH, desorption): 1.52%; DVS 0 to 90 to 0% RH (dm/dt <0.002%) ([1]; 90.0% RH, sorption): 1.52%; DVS desorption behaviour (hysteresis) [1]: desorption profile was unusual and ended beneath unity; Disproportionation in FaSSGF ([2]; 1H NMR of isolated residue, non-ionised benzoic acid present): disproportionated; Observation upon pH adjustment from 4.17 to 1.63 ([2]; SIF buffer solubility study): solid was observed; Change of purity profile / CP [3]: little changed
COc1ccc2c(ccn2C[C@@H](C)N(C)C)c1.O=C(O)/C=C\C(=O)O [compound 1 maleate]	hygroscopic	−0.03%	0.02%	0.03%	0.05%	0.09%	0.08%	0.15%	0.11%	0.22%	0.14%	0.30%	0.18%	0.48%	0.26%	0.70%	0.42%	1.00%	0.86%	1.40%	DVS isotherm uptake [1]: ca. 3.5 % w/w; DVS 0 to 90 to 0% RH (dm/dt <0.002%) ([1]; 0.0% RH, desorption): −0.07%; DVS 0 to 90 to 0% RH (dm/dt <0.002%) ([1]; 0.0% RH, sorption): DVS 0 to 90 to 0% RH (dm/dt <0.002%): 0.0 (0.00%), 5.0; DVS 0 to 90 to 0% RH (dm/dt <0.002%) ([1]; 70.0% RH, sorption): 1.38%; DVS 0 to 90 to 0% RH (dm/dt <0.002%) ([1]; 80.0% RH, desorption): 2.03%; DVS 0 to 90 to 0% RH (dm/dt <0.002%) ([1]; 80.0% RH, sorption): 2.00%; DVS 0 to 90 to 0% RH (dm/dt <0.002%) ([1]; 90.0% RH, desorption): 3.44%; DVS 0 to 90 to 0% RH (dm/dt <0.002%) ([1]; 90.0% RH, sorption): 3.44%; DVS desorption behaviour (hysteresis) [1]: small hysteresis; Solubility in SIF buffers ([2]; FaSSIF, FeSSIF and FaSSGF, 37° C., 24 h, concentration tested 30 mg/ml): freely soluble; Change of purity profile / CP [3]: reduction in CP
